According to patent US20030186943A1, “Substituted gamma-phenyl-delta-lactams and uses related thereto” (Inflazyme Pharmaceuticals Ltd., priority 1998, published 2003):
Like-named read-outs stand apart in the source and are kept apart here.

Columns and labels:
[1] = system: tail skin allograft rejection (C57BL/6 donor, BALB/c recipient mice); test: Murine tail skin allograft transplantation model; format: in vivo, mouse; conditions: 10 mg/kg i.p. twice daily; for Average graft survival: from one day prior to and for 15 days after transplantation; for # grafts surviving beyond 16 days p.t.: five mice per group
Method: Tail skin from donor H-2 b C57BL/6 mice was transplanted onto recipient female H-2^d BALB/c mice (Lagodzinski, Z. et al., Immunology 71:148-150 (1990)). Five mice were included per group. […] Test compounds and CsA were administered twice daily intraperitoneally at a dose of 10 mg/kg beginning at one day prior to transplantation and for 15 days after transplantation, including the day of transplantation. Mice were monitored and scored daily over 15 days post transplantation for graft rejection.
Skin allograft rejection is primarily mediated by T lymphocytes with little evidence for a major role of antibodies under most circumstances. Skin allograft rejection requires the activation of helper and cytotoxic effector T cell populations. Graft rejection was assessed by monitoring allograft necrosis. Because tail skin is visibly distinct from the surrounding trunk skin of the mouse, the course of rejection can be easily monitored. Fully intact grafts were scored as 100%. Complete graft rejection was defined as >90% graft necrosis. Acute graft rejection generally proceeds via a series of visually obvious events beginning with swelling and erythema of the graft. These events are followed by graft desiccation and scab formation over most or all of the graft, signaling the loss of the viable graft tissue. Scab formation is subsequently followed by shrinkage and scar formation.

[2] = system: IL-10 production in concanavalin A stimulated primary human CD4+ T-cells; test: IL-10 production (Th2 profile) in concanavalin A stimulated primary human CD4+ T-cells; format: cell-based; conditions: T-cell, 10 μg/mL Concanavalin A, 48 hours, X marks this range
From the text: The assay on the primary human T-cells involves their activation by concanavalin A (conA); (Sigma, Catalogue No. C 5275), followed by ELISA detection for cytokines for either profile. In the case of Th1-profiles, IL-2 and INF-γ are used as benchmarks while IL-10 is the indicator for a Th2-profile. Biologically, these indicators are useful in that IL-2 is the major T-cell mitogen while IL-10 represents a powerful yet selective immunosuppressive agent.
Approximately 60 cc of whole human blood was collected into ACD anti-coagulant vacutainer tubes. 15 mL Ficoll Paque 1077 was aliquoted into 6 sterile 50 mL conical tubes. 10 mL of blood was slowly layered on top of the Ficoll Paque by holding the tube upright and resting the pipette tip at the inside edge of the tube and allowing the blood to slowly run down the side of the tube. Tubes were spun at 1700 rpm for 30 minutes at room temperature. The plasma layer above the leukocyte band was aspirated off and a pasteur pipette was used to lift off the leukocyte band and transfer it to a sterile 50 mL conical tube. Cells from each leukocyte gradiant tube were transferred to a separate 50 mL conical tube. Sterile PBS pH 7.4 was added to each 50 mL conical tube containing cells from leukocyte band to a volume of 50 mL. Tubes were spun at 1100 rpm for 10 minutes. Supernatant was aspirated off and the cells were resuspended in 50 mL PBS pH 7.4. Tubes were re-centrifuged at 1100 rpm for 10 minutes. Supernatant was aspirated off and the cells were resuspended in appropriate medium at a density of 5×10^7 cells/mL or 2×10^6 cells/mL.
CD 4+T-cell Preparation: Cells from Leukocyte preparation were resuspended in sterile PBS pH 7.4 supplemented with 2-6% Fetal Bovine Serum (FBS) at a density of 5×10^7 cells/mL. Cells were then ready for isolation.
100 μL of antibody cocktail (Stem Cell Technologies, Catalogue No. 14062) was added for each mL of cells and mixed well. Cells+Ab cocktail was incubated on ice for 30 minutes. After 30 minute incubation, 60 μL of magnetic colloid was added for each mL of cells, and mixed well. Cells+Ab cocktail+magnetic colloid were incubated on ice for 30 minutes. After a final 30 minute incubation cells were ready for magnetic cell separation.
Sample was loaded into the top of a column. The stopcock was turned to allow the flow of media down through the column, and the media was collected into a collection tube. PBS supplemented with 2-6% FBS was added to the column until three column volumes had been collected (not including the volume of the start sample). Cells were washed, counted, and resuspended in RPMI 1640 with 10% FBS+2 mM L-glutamine at a density of 1×10^6 cells/mL.
CD4+ T-cells were isolated as described above. Cells were suspended in RPMI 1640 media (Stem Cell Technologies Inc.; Catalogue No. 36750) with 10% FBS+2 mM L-glutamine at a density of 1×10^6 cells/mL. Cells were maintained on ice as test compounds were prepared. Test compounds were prepared in a sterile 96-well assay plate at 50×the final desired test concentration, all wells contained an equal amount of dimethylsulfoxide vehicle. 500 μL of CD4^+ T-cells were added to each well of 24-well assay plate. 10 μL of each test compound working solution was added to the appropriate wells; two wells were left as stimulated and non-stimulated controls. 10 μL of concanavalin A (50×the final concentration) at 10 μg/mL was added to each well with the exception of the non-stimulated control wells. Cells were incubated at 37° C. for 48 hours. Conditioned media is then assessed by ELISA for the quantity of IL-2, […], TNFα and IL-10 present.
Tables 5A, 5B and 5C represent a synopsis of data across individuals with respects to the potency of compounds of the invention in their ability to inhibit cytokines that are likely to promote or depress a Th1 or Th2 response. […]

[3] = system: cAMP Phosphodiesterase 4 from Human U937 Cells; test: Inhibition of cAMP phosphodiesterase 4 from human U937 cells; format: biochemical
Method: PDE's 1 through 4 utilize cAMP as substrate while PDE 5 uses cGMP. […] PDE's for the various assays were partially purified from the following cells/tissues; PDE 1 (bovine heart), PDE 2 (human platelets), PDE 3 (human platelets), PDE 4 (human promonocytic U937 cells) and PDE 5 (human platelets).
Sonicated cell extracts were then centrifuged at 70,000 g for 30 minutes and supernatants removed. Sucrose was added to a final concentration of 0.25 M, aliquoted and stored at −80° C.
PDE reactions were performed for 30 minutes at 37° C. in 20 μL volumes in 1 μM [^3H] cAMP (Amersham website http://www.apbiotech.com), 0.5 U/mL 5′ nucleotidase (Sigma), 50 mM Tris Cl, 10 mM MgCl pH 7.5. U937 extract was added such that less than 10% of substrate was consumed. Test compound or vehicle was added to the desired concentration. […] Reactions were performed in duplicate. Reactions were terminated by addition of 200 μL Dowex 1-8400 Cl^− anion exchange resin in a ratio of 1 resin: 2 methanol: 1H2O. Samples were mixed by inversion and then allowed to settle for 2-3 hours.

[4] = read-out: IL-10 IC50 RANGE (μM) 2.0-20
[5] = read-out: IL-10 IC50 RANGE (μM) 0.2-2.0
[6] = read-out: IL-10 IC50 RANGE (μM) 0.02-0.2

Row | SMILES | Average graft survival [1] [days] | Allograft survival rate (% at 9 days post-transplant) [1] [%] | # grafts surviving beyond 16 days p.t. [1] | also measured
1 | COc1ccc([C@@H]2CCC(=O)OC2)cc1OC1CCCC1 [Compound 41] | 11.6 ± 4.6 | 60 | 1 | –
2 | COc1cc(C[C@@H]2C[C@@H](c3ccc(OC)c(OC)c3)COC2=O)ccc1O [Compound 30] | – | – | – | IC50 [2, 4]: 2 to 20 µM; IC50 ([3]; PDE4 from U937 extract, 1 μM [3H] cAMP, X marks this range, read-out: IC50 range (μM) 1-10): 1 to 10 µM
3 | COc1ccc([C@H]2CNC(=O)C(Cc3ccc(OCc4ccccc4)c(OC)c3)C2)cc1OC (stereo partly drawn) [Compound 54] | 11.5 ± 3.3 | 75 | 0 | IC50 [2, 5]: 0.2 to 2 µM
4 | COc1cc(CC2C[C@@H](c3ccc(OC)c(OC)c3)CNC2=O)ccc1O (stereo partly drawn) [Compound 55] | – | – | – | IC50 [2, 5]: 0.2 to 2 µM
5 | COc1ccc(C2CNC(=O)C2)cc1OC1CCCC1 (stereo not drawn) [Rolipram, reference compound] | 11.5 ± 3.7 | 50 | 1 | IC50 [2, 6]: 0.02 to 0.2 µM
6 | COc1cc(CC2C[C@@H](c3ccc(OC)c(OC4CCCC4)c3)COC2=O)ccc1O (stereo partly drawn) [Compound 43] | – | – | – | IC50 [2, 4]: 2 to 20 µM; IC50 ([3]; read-out: IC50 against the catalytic activity of PDE4): 0.26 µM
7 | COc1cc(CC2C[C@@H](c3ccc(OC)c(OC4CCCC4)c3)CNC2=O)ccc1O (stereo partly drawn) [Compound 62] | – | – | – | IC50 [2, 6]: 0.02 to 0.2 µM
8 | COc1cc(C[C@@H]2CC(c3ccc(OC)c(OC)c3)COC2=O)ccc1O (mixture of isomers) [Compound 12] | – | – | – | IC50 ([3]; human promonocytic U937 cells, read-out: IC50 PDE 4): 5.9 µM
